Patent US10683269B2 (MISSION THERAPEUTICS LIMITED, priority 2016, dated 2020)

Target: T1, USP7 (Homo sapiens, UniProt Q93009)
T1 construct: The USP7 construct was PCR amplified and cloned into a pFLAG-CMV-6a vector (Sigma-Aldrich) with an N-terminal FLAG tag; made in house; host or cells: HEK293T
Assay: USP7 biochemical IC50 assay (fluorescence polarisation, TAMRA labelled peptide linked to ubiquitin via an iso-peptide bond)
Settings: 30 min pre-incubation of enzyme and compound, read after 2 hr incubation at room temperature, read-out: IC50 range
Method in brief: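 Fluorescence polarisation at 540 nm excitation/590 nm emission, read immediately and after 2 hr at room temperature, following addition of 50 nM TAMRA-labelled iso-peptide ubiquitin substrate.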

T1 sequence (Q93009 whole entry): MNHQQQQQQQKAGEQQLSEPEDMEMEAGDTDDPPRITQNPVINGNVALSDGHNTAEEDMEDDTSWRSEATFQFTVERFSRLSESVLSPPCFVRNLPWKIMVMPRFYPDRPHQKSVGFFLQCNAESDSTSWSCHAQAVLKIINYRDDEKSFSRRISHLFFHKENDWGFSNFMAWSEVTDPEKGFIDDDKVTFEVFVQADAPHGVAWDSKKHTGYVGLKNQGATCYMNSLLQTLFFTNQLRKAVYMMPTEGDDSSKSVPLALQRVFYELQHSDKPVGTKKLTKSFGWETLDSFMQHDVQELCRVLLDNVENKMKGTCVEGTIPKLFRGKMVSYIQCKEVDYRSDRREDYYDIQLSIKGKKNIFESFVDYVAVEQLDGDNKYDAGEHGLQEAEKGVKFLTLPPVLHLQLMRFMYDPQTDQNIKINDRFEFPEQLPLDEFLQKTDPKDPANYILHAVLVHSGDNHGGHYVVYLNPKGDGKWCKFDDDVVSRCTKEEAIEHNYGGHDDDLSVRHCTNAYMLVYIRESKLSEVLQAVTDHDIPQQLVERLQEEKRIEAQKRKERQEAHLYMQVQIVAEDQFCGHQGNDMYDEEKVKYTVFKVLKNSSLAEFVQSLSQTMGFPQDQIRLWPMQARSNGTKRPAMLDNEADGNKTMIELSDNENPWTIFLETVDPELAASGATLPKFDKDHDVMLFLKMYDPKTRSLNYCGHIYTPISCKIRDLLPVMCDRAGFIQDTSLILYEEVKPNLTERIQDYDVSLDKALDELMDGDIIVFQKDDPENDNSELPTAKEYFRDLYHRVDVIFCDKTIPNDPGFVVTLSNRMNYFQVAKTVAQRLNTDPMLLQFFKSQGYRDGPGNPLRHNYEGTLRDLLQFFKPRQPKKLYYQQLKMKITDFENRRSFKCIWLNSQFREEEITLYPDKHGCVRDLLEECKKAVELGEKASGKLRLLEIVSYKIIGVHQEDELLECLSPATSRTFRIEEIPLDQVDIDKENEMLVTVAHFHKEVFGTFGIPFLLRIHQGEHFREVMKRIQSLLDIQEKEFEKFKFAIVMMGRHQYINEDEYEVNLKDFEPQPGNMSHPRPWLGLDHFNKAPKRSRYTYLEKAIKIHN

Structure (SMILES) | IC50
N#CN1Cc2cccc(NC(=O)c3ccc(-c4ccncc4)cc3)c2C1 [Example 82, N-(2-cyanoisoindolin-4-yl)-4-(pyridin-4-yl)benzamide] | 1 to 10 µM
N#Cc1ccc(-c2cc(C(=O)NC3CCOCC3)cc3c2CN(C#N)C3)cc1 [Example 238, 2-cyano-7-(4-cyanophenyl)-N-(tetrahydro-2H-pyran-4-yl)isoindoline-5-carboxamide] | 1 to 10 µM
COc1ccc(C#N)c(-c2cc(C(N)=O)cc3c2CN(C#N)C3)c1 [Example 234, 2-cyano-7-(2-cyano-5-methoxyphenyl)isoindoline-5-carboxamide] | 1 to 10 µM
CN1CCOC(CNc2nc3c(c(N4CCc5ccccc5C4)n2)CN(C#N)C3)C1 (centres unmarked) [Example 197, 4-(3,4-dihydroisoquinolin-2(1H)-yl)-2-(((4-methylmorpholin-2-yl)methyl)amino)-5,7-dihydro-6H-pyrrolo[3,4-d]pyrimidine-6-carbonitrile] | 1 to 10 µM
N#CN1Cc2cccc(-c3cnc4[nH]ccc4c3)c2C1 [Example 9, 4-(1H-pyrrolo[2,3-b]pyridin-5-yl)isoindoline-2-carbonitrile] | 1 to 10 µM
CC(=O)Nc1ccc2c(c1-c1ccccc1)CN(C#N)C2 [Example 96, N-(2-cyano-4-phenylisoindolin-5-yl)acetamide] | 1 to 10 µM
CNC(=O)C1CCCN1c1nc(-c2ccccc2)nc2c1CN(C#N)C2 (centres unmarked) [Example 133, 1-(6-cyano-2-phenyl-6,7-dihydro-5H-pyrrolo[3,4-d]pyrimidin-4-yl)-N-methylpyrrolidine-2-carboxamide] | 10 to 30 µM
COCc1ccc(C(=O)Nc2cccc3c2CN(C#N)C3)cc1 [Example 88, N-(2-cyanoisoindolin-4-yl)-4-(methoxymethyl)benzamide] | 10 to 30 µM
CN(C)c1nc2c(c(N3CCC(Oc4ccccc4)CC3)n1)CN(C#N)C2 [Example 205, 2-(dimethylamino)-4-(4-phenoxypiperidin-1-yl)-5,7-dihydro-6H-pyrrolo[3,4-d]pyrimidine-6-carbonitrile] | 1 to 10 µM
Cc1[nH]ncc1-c1nc2c(c(N3CCCC3)n1)CN(C#N)C2 [Example 134, 2-(5-methyl-1H-pyrazol-4-yl)-4-(pyrrolidin-1-yl)-5,7-dihydro-6H-pyrrolo[3,4-d]pyrimidine-6-carbonitrile] | 10 to 30 µM
CNc1nc2c(c(N3CCC(Oc4ccccc4)CC3)n1)CN(C#N)C2 [Example 204, 2-(methylamino)-4-(4-phenoxypiperidin-1-yl)-5,7-dihydro-6H-pyrrolo[3,4-d]pyrimidine-6-carbonitrile] | 1 to 10 µM
N#CN1Cc2nc(NCCO)nc(-c3ccc(F)c(F)c3)c2C1 [Example 209, 4-(3,4-difluorophenyl)-2-((2-hydroxyethyl)amino)-5,7-dihydro-6H-pyrrolo[3,4-d]pyrimidine-6-carbonitrile] | 1 to 10 µM
CNC(=O)c1cc2c(c(-c3ccc(C#N)cc3C#N)c1)CN(C#N)C2 [Example 239, 2-cyano-7-(2,4-dicyanophenyl)-N-methylisoindoline-5-carboxamide] | 1 to 10 µM
N#Cc1ccc(-c2cc(NCC3CCOCC3)cc3c2CN(C#N)C3)c(C(N)=O)c1 [Example 281, 5-Cyano-2-(2-cyano-6-(((tetrahydro-2H-pyran-4-yl)methyl)amino)isoindolin-4-yl)benzamide] | 1 to 10 µM
N#Cc1ccc(-c2c(F)ccc3c2CN(C#N)C3)c(C(N)=O)c1 [Example 260, 5-cyano-2-(2-cyano-5-fluoroisoindolin-4-yl)benzamide] | 1 to 10 µM
Cc1ccccc1-c1cc(C(=O)Nc2cccc3c2CN(C#N)C3)[nH]n1 [Example 83, N-(2-cyanoisoindolin-4-yl)-3-(o-tolyl)-1H-pyrazole-5-carboxamide] | 10 to 30 µM
N#CN1Cc2nc(NCc3cccnc3)nc(-c3ccccc3)c2C1 [Example 118, 4-phenyl-2-((pyridin-3-ylmethyl)amino)-5,7-dihydro-6H-pyrrolo[3,4-d]pyrimidine-6-carbonitrile] | 1 to 10 µM
N#CN1Cc2nc(N)nc(N3CCC(Oc4ccccc4)CC3)c2C1 [Example 207, 2-amino-4-(4-phenoxypiperidin-1-yl)-5,7-dihydro-6H-pyrrolo[3,4-d]pyrimidine-6-carbonitrile] | 10 to 30 µM
CN1CCC[C@@H](C(=O)Nc2cc3c(c(-c4ccc(F)cc4)c2)CN(C#N)C3)C1 [Example 28, (R)-N-(2-cyano-7-(4-fluorophenyl)isoindolin-5-yl)-1-methylpiperidine-3-carboxamide] | < 1 µM
N#CN1Cc2cccc(NC(=O)c3csc(-c4ccccc4)n3)c2C1 [Example 84, N-(2-cyanoisoindolin-4-yl)-2-phenylthiazole-4-carboxamide] | 10 to 30 µM
N#CN1Cc2cccc(-c3ccccc3S(=O)(=O)NCCO)c2C1 [Example 179, 2-(2-cyanoisoindolin-4-yl)-N-(2-hydroxyethyl)benzenesulfonamide] | 1 to 10 µM
N#CN1Cc2ccnc(-c3ccccc3)c2C1 [Example 19, 4-phenyl-1,3-dihydro-2H-pyrrolo[3,4-c]pyridine-2-carbonitrile] | 1 to 10 µM

Structure (SMILES) | IC50
COCCc1cc2c(c(-c3ccccc3)c1)CN(C#N)C2 [Example 215, 6-(2-methoxyethyl)-4-phenylisoindoline-2-carbonitrile] | 1 to 10 µM
N#Cc1ccc(N2CCCC2=O)cc1-c1cccc2c1CN(C#N)C2 [Example 299, 4-(2-cyano-5-(2-oxopyrrolidin-1-yl)phenyl)isoindoline-2-carbonitrile] | 1 to 10 µM
Cc1nc(-c2cc3c(c(-c4ccccc4)c2)CN(C#N)C3)no1 [Example 20, 6-(5-methyl-1,2,4-oxadiazol-3-yl)-4-phenylisoindoline-2-carbonitrile] | 1 to 10 µM
CS(=O)(=O)Nc1cc2c(c(-c3ccccc3)c1)CN(C#N)C2 [Example 61, N-(2-cyano-7-phenylisoindolin-5-yl)methanesulfonamide] | 1 to 10 µM
Cn1nccc1CNc1cc(-c2ccc(F)cc2)c2c(n1)CN(C#N)C2 [Example 248, 4-(4-fluorophenyl)-2-(((1-methyl-1H-pyrazol-5-yl)methyl)amino)-5,7-dihydro-6H-pyrrolo[3,4-b]pyridine-6-carbonitrile] | < 1 µM
CC(O)CNc1cc2c(c(-c3ccc(C#N)cc3)c1)CN(C#N)C2 (centres unmarked) [Example 286, 4-(4-Cyanophenyl)-6-((2-hydroxypropyl)amino)isoindoline-2-carbonitrile] | 1 to 10 µM
CN(C)S(=O)(=O)c1ccccc1-c1cccc2c1CN(C#N)C2 [Example 174, 2-(2-cyanoisoindolin-4-yl)-N,N-dimethylbenzenesulfonamide] | 1 to 10 µM
CN(C)CC(=O)Nc1cc2c(c(-c3ccccc3)c1)CN(C#N)C2 [Example 49] | < 1 µM
N#Cc1ccc(-c2cc(NC3CCOCC3)cc3c2CN(C#N)C3)cc1 [Example 274, 4-(4-cyanophenyl)-6-((tetrahydro-2H-pyran-4-yl)amino)isoindoline-2-carbonitrile] | 1 to 10 µM
Cc1ccc(-c2cccc3c2CN(C#N)C3)c(C(N)=O)c1 [Example 3, 2-(2-cyanoisoindolin-4-yl)-5-methylbenzamide] | 1 to 10 µM
Cc1cc(C#N)ccc1-c1cccc2c1CN(C#N)C2 [Example 66, 4-(4-cyano-2-methylphenyl)isoindoline-2-carbonitrile] | 1 to 10 µM
CN1CCOC(CNc2nc3c(c(-c4ccccc4)n2)CN(C#N)C3)C1 (single isomer, unassigned) [Example 153, 2-(((4-methylmorpholin-2-yl)methyl)amino)-4-phenyl-5,7-dihydro-6H-pyrrolo[3,4-d]pyrimidine-6-carbonitrile] | < 1 µM
COc1cccc(-c2nnc(-c3cnn(C)c3)c3c2CN(C#N)C3)c1 [Example 182, 1-(3-methoxyphenyl)-4-(1-methyl-1H-pyrazol-4-yl)-5,7-dihydro-6H-pyrrolo[3,4-d]pyridazine-6-carbonitrile] | 1 to 10 µM
CN1CCCC(CNc2nc3c(c(-c4ccccc4)n2)CN(C#N)C3)C1 (centres unmarked) [Example 125, 2-(((1-methylpiperidin-3-yl)methyl)amino)-4-phenyl-5,7-dihydro-6H-pyrrolo[3,4-d]pyrimidine-6-carbonitrile] | 1 to 10 µM
Cn1nccc1C(=O)Nc1cc2c(c(-c3ccccc3)c1)CN(C#N)C2 [Example 39, N-(2-cyano-7-phenylisoindolin-5-yl)-1-methyl-1H-pyrazole-5-carboxamide] | 1 to 10 µM
N#CN1Cc2cc(NC[C@H](O)CO)cc(-c3ccc(F)cc3)c2C1 [Example 282, (S)-6((2,3-dihydroxypropyl)amino)-4-(4-fluorophenyl)isoindoline-2-carbonitrile] | 1 to 10 µM
CN1CCCC(CNc2cc3c(c(-c4ccccc4)c2)CN(C#N)C3)C1 (centres unmarked) [Example 64, 6-(((1-methylpiperidin-3-yl)methyl)amino)-4-phenylisoindoline-2-carbonitrile] | < 1 µM
Cn1cc(Nc2nc3c(c(-c4ccccc4)n2)CN(C#N)C3)cn1 [Example 112, 2-((1-methyl-1H-pyrazol-4-yl)amino)-4-phenyl-5,7-dihydro-6H-pyrrolo[3,4-d]pyrimidine-6-carbonitrile] | 1 to 10 µM
CC(C)(O)CNc1cc2c(c(-c3ccc(C#N)cc3)c1)CN(C#N)C2 [Example 287, 4-(4-cyanophenyl)-6-((2-hydroxy-2-methylpropyl)amino)iso-indoline-2-carbonitrile] | 1 to 10 µM
N#CN1Cc2nc(-c3cccnc3)nc(N3CCCC3)c2C1 [Example 137, 2-(pyridin-3-yl)-4-(pyrrolidin-1-yl)-5,7-dihydro-6H-pyrrolo[3,4-d]pyrimidine-6-carbonitrile] | 1 to 10 µM
Cc1nc2c(c(-c3cccc(N4CCCC4=O)c3)n1)CN(C#N)C2 [Example 289, 2-methyl-4-(3-(2-oxopyrrolidin-1-yl)phenyl)-5,7-dihydro-6H-pyrrolo[3,4-d]pyrimidine-6-carbonitrile] | 1 to 10 µM
CN1CCC(C(=O)Nc2cc3c(c(-c4ccccc4)c2)CN(C#N)C3)CC1 [Example 48, N-(2-cyano-7-phenylisoindolin-5-yl)-1-methylpiperidine-4-carboxamide] | < 1 µM
